# Data as given in patent US20050148495A1, “Methods and materials including for treating acne” (priority 2003, published 2005).
# Like-named read-outs stand apart in the source and are kept apart here. Non-standard residues stand in square brackets, D forms with d. Residues, ends and D or L forms follow the SMILES beside them. d1Nal = N[C@H](Cc1cccc2ccccc12)C(=O)O
# What was measured:
# [1] = tested on: Salmonella typhimurium TA98, TA100, TA1535, TA1537 and Escherichia coli WP2uvrA; experiment: Ames test: Salmonella-Escherichia coli/mammalian-microsome reverse mutation assay; type: cell-based; details: with and without S9
# Description: XMP.629 was evaluated in an initial mutagenicity assay. In this Salmonella-Escherchia coli/mammalian-microsome reverse mutation assay, XMP.629 was evaluated for the ability to induce reverse mutations at the histidine locus in four tester strains of Salmonella-typhimurium (TA98, TA100, TA1535 and TA1537) and at the tryptophan locus in Escherichia coli tester strain, WP2uvrA, in the presence or absence of an exogenous metabolic activation system ([…]). The experimental materials, methods and procedures were based on those described by Ames et al., 1975 (Mutat. Res. 31; 347-364) and Green and Muriel, 1976 (Mutat. Res. 38: 3-32). The assay design was based on the OECD Guideline 471, updated and adopted Jul. 21, 1997. Based on the results of an initial dose rangefinding study, XMP.629 was evaluated using (a) four standard Salmonella tester strains with the rat hepatic S9 (microsomal) fraction at doses of 1.00, 3.33, 10.0, 33.3, 66.7 and 100 μg/plate, and without S9 at doses of 1.00, 3.33, 10.0, 25.0, 33.3 and 66.7 μg/plate; and (b) tester strain WP2uvrA with S9 at doses of 3.33, 10.0, 33.3, 100, 250 and 333 μg/plate and without S9 at doses of 1.00, 3.33, 10.0, 33.3, 66.7 and 100 μg/plate. XMP.629 was re-evaluated in an independent confirmatory experiment under similar conditions at lower doses.
# In addition, the test article was freely soluble at all doses evaluated with and without S9. […]
# S. aureus = experiment: Comparison of XMP.629 with standard topical agents (MIC90/MBC); type: cell-based, Staphylococcus aureus
# Description: Control tubes containing only water or formulation buffer were prepared for each isolate. Initial growth controls were determined by removing 10 μL from the water control tube and diluting it by 100 fold. From this dilution, 10 μL was used for inoculation and for spreading over the surface onto Laked Blood Agar (LBA) (Anaerobe Systems, Morgan Hill, Calif.) plates. The tubes and plates were incubated in an anaerobic atmosphere at 37° C. for 48 h. […] MBC50 and 90 values represent where 50 and 90%, respectively, of the tested strain's MBC values are equal to or less than the indicated concentration.
# P. acnes = details: for MBC Range: in µg/mL
# Description: An in vitro assessment of antibiotic activity in XMP.629 and various known antibiotics against a representative panel of bacterial strains associated with acne was conducted. A broth dilution methodology was employed using guidelines established by National Committee for Clinical Laboratory Standards (NCCLS) for anaerobic organisms to establish an antibacterial profile for XMP.629. Assays to determine the minimal bactericidal concentrations (MBC) and minimal inhibitory concentration (MIC) were conducted for XMP.629 and other known antibiotics.
# Inoculum from a representative panel of bacterial strains associated with acne, such as P. acnes, P. avidum, P. granulosum, and Staphylococcus epidermis was prepared by suspending approximately 5-10 isolated bacterial colonies in pre-reduced MicroScan® Inoculum Water (Dade Behring, Deerfield, Ill.), and growing the bacterial suspension to log phase (approximately 48 hrs). An inoculum of between 1-5×10^6/mL was achieved by adding 100 μL of the suspension to 25 mL Brain Heart Infusion Broth (BHI) (Anaerobe Systems, Morgan Hill, Calif.).
# A stock solution of XMP.629 dissolved in water at a concentration of 4.0 mg/mL was prepared. Dilute solutions of XMP.629 at concentrations ranging from about 1.25 to about 160 μg/mL were made in either water or formulation buffer (130 mM sodium chloride, 0.2% P103 (poloxamer 333), and 0.10% EDTA, pH 7.3).
# Control tubes containing only water or formulation buffer were prepared for each isolate. Initial growth controls were determined by removing 10 μL from the water control tube and diluting it by 100 fold. From this dilution, 10 μL was used for inoculation and for spreading over the surface onto Laked Blood Agar (LBA) (Anaerobe Systems, Morgan Hill, Calif.) plates. The tubes and plates were incubated in an anaerobic atmosphere at 37° C. for 48 h.
# [2] = ATCC 6919, Formulation Buffer Solvent, Study 1
# [3] = ATCC 6919, Formulation Buffer Solvent, Study 2
# [4] = ATCC 6919, Water Solvent, Study 1
# [5] = ATCC 6919, Water Solvent, Study 2
# [6] = ATCC 6919, XMP.629 composition of Example 5 (Table 12)
# [7] = ATCC 11827, Formulation Buffer Solvent, Study 1
# [8] = ATCC 11827, Formulation Buffer Solvent, Study 2
# [9] = ATCC 11827, Water Solvent, Study 1
# [10] = ATCC 11827, Water Solvent, Study 2
# [11] = ATCC 11828, composition of Example 5
# [12] = Clindamycin Resistant C678, composition of Example 5
# [13] = Clindamycin Resistant C767, composition of Example 5
# [14] = Clindamycin Resistant C768, composition of Example 5
# [15] = Clindamycin Resistant C769, composition of Example 5
# [16] = Clindamycin Resistant C770, composition of Example 5
# [17] = P. acnes strains of Table 7, composition of Example 5
# [18] = P. acnes, Clindamycin resistant, 16 strains
# [19] = P. acnes, Clindamycin sensitive, 20 strains
# [20] = Propionibacterium acnes, 36 strains/clinical isolates, formulation buffer
# [21] = RMA 9833, Formulation Buffer Solvent, Study 1
# [22] = RMA 9833, Formulation Buffer Solvent, Study 2
# [23] = RMA 9833, Water Solvent, Study 1
# [24] = RMA 9833, Water Solvent, Study 2
# [25] = RMA 9833, composition of Example 5
# [26] = RMA 12689, Formulation Buffer Solvent, Study 1
# [27] = RMA 12689, Formulation Buffer Solvent, Study 2
# [28] = RMA 12689, Water Solvent, Study 1
# [29] = RMA 12689, Water Solvent, Study 2
# [30] = RMA 12689, composition of Example 5
# [31] = RMA 12732, Formulation Buffer Solvent, Study 1
# [32] = RMA 12732, Formulation Buffer Solvent, Study 2
# [33] = RMA 12732, Water Solvent, Study 1
# [34] = RMA 12732, Water Solvent, Study 2
# [35] = RMA 12908, Formulation Buffer Solvent, Study 1
# [36] = RMA 12908, Formulation Buffer Solvent, Study 2
# [37] = RMA 12908, Water Solvent, Study 1
# [38] = RMA 12908, Water Solvent, Study 2
# [39] = RMA 12908, composition of Example 5
# [40] = RMA 13399, Formulation Buffer Solvent, Study 1
# [41] = RMA 13399, Formulation Buffer Solvent, Study 2
# [42] = RMA 13399, Water Solvent, Study 1
# [43] = RMA 13399, Water Solvent, Study 2
# [44] = UD 738, composition of Example 5
# [45] = XMP.629 composition of Example 5 (Table 12), P. acnes strains of Table 7
smiles,measurement,setting,value
"CC(C)C[C@@H](NC(=O)[C@H](N)CCCCN)C(=O)N[C@H](Cc1ccccc1)C(=O)N[C@H](CCCNC(=N)N)C(=O)N[C@H](Cc1cccc2ccccc12)C(=O)N[C@H](CCC(N)=O)C(=O)N[C@H](C)C(=O)N[C@H](CCCCN)C(=O)N[C@H](Cc1cccc2ccccc12)C(N)=O [XMP.629, NH2-lys-leu-phe-arg-(3-(1-naphthyl)-ala)-gln-ala-lys-(3-(1-naphthyl)-ala)-CONH2] (H-[dK][dL][dF][dR][d1Nal][dQ][dA][dK][d1Nal]-NH2)",reverse mutation assay result,[1],negative
same,"MIC90, XMP.629 data reported as MBC values",S. aureus,8 µg/mL
same,"MIC90, XMP.629 data reported as MBC values",S. aureus; in FB (formulation buffer),0.06 µg/mL
same,MBC,P. acnes; [2],1 µg/mL
same,MIC,P. acnes; [2],0.5 µg/mL
same,MBC,P. acnes; [3],0.50 µg/mL
same,MIC,P. acnes; [3],1 µg/mL
same,MBC,P. acnes; [4],4 µg/mL
same,MIC,P. acnes; [4],2 µg/mL
same,MBC,P. acnes; [5],2 µg/mL
same,MIC,P. acnes; [5],2 µg/mL
same,MBC,P. acnes; [6],2 µg/mL
same,MIC,P. acnes; [6],1 µg/mL
same,MBC,P. acnes; [7],1 µg/mL
same,MIC,P. acnes; [7],0.5 µg/mL
same,MBC,P. acnes; [8],1 µg/mL
same,MIC,P. acnes; [8],1 µg/mL
same,MBC,P. acnes; [9],2 µg/mL
same,MIC,P. acnes; [9],2 µg/mL
same,MBC,P. acnes; [10],2 µg/mL
same,MIC,P. acnes; [10],2 µg/mL
same,MBC,P. acnes; [11],2 µg/mL
same,MIC,P. acnes; [11],1 µg/mL
same,MBC,P. acnes; [12],4 µg/mL
same,MIC,P. acnes; [12],1 µg/mL
same,MBC,P. acnes; [13],2 µg/mL
same,MIC,P. acnes; [13],1 µg/mL
same,MBC,P. acnes; [14],4 µg/mL
same,MIC,P. acnes; [14],2 µg/mL
same,MBC,P. acnes; [15],2 µg/mL
same,MIC,P. acnes; [15],1 µg/mL
same,MBC,P. acnes; [16],2 µg/mL
same,MIC,P. acnes; [16],0.5 µg/mL
same,"MIC90, XMP.629 data reported as MBC values",P. acnes; P. acnes,1 µg/mL
same,MBC Geo. Mean,P. acnes; [17],2.3 µg/mL
same,MIC Geo. Mean,P. acnes; [17],0.95 µg/mL
same,MBC50,P. acnes; [18],1 µg/mL
same,MBC90,P. acnes; [18],2 µg/mL
same,MBC Range,P. acnes; [18],1-2
same,MBC50,P. acnes; [19],1 µg/mL
same,MBC90,P. acnes; [19],2 µg/mL
same,MBC Range,P. acnes; [19],0.25-2
same,MBC50,P. acnes; [20],1 µg/mL
same,MBC90,P. acnes; [20],2 µg/mL
same,MBC Range,"P. acnes; Propionibacterium acnes, 36 strains/clinical isolates",0.25-2
same,MBC,P. acnes; [21],1 µg/mL
same,MIC,P. acnes; [21],0.5 µg/mL
same,MBC,P. acnes; [22],2 µg/mL
same,MIC,P. acnes; [22],1 µg/mL
same,MBC,P. acnes; [23],2 µg/mL
same,MIC,P. acnes; [23],1 µg/mL
same,MBC,P. acnes; [24],2 µg/mL
same,MIC,P. acnes; [24],2 µg/mL
same,MBC,P. acnes; [25],1 µg/mL
same,MIC,P. acnes; [25],0.5 µg/mL
same,MBC,P. acnes; [26],2 µg/mL
same,MIC,P. acnes; [26],1 µg/mL
same,MBC,P. acnes; [27],2 µg/mL
same,MIC,P. acnes; [27],1 µg/mL
same,MBC,P. acnes; [28],4 µg/mL
same,MIC,P. acnes; [28],2 µg/mL
same,MBC,P. acnes; [29],2 µg/mL
same,MIC,P. acnes; [29],2 µg/mL
same,MBC,P. acnes; [30],2 µg/mL
same,MIC,P. acnes; [30],1 µg/mL
same,MBC,P. acnes; [31],2 µg/mL
same,MIC,P. acnes; [31],2 µg/mL
same,MBC,P. acnes; [32],2 µg/mL
same,MIC,P. acnes; [32],2 µg/mL
same,MBC,P. acnes; [33],4 µg/mL
same,MIC,P. acnes; [33],4 µg/mL
same,MBC,P. acnes; [34],2 µg/mL
same,MIC,P. acnes; [34],4 µg/mL
same,MBC,P. acnes; [35],2 µg/mL
same,MIC,P. acnes; [35],2 µg/mL
same,MBC,P. acnes; [36],2 µg/mL
same,MIC,P. acnes; [36],2 µg/mL
same,MBC,P. acnes; [37],4 µg/mL
same,MIC,P. acnes; [37],4 µg/mL
same,MBC,P. acnes; [38],4 µg/mL
same,MIC,P. acnes; [38],2 µg/mL
same,MBC,P. acnes; [39],2 µg/mL
same,MIC,P. acnes; [39],1 µg/mL
same,MBC,P. acnes; [40],1 µg/mL
same,MIC,P. acnes; [40],0.5 µg/mL
same,MBC,P. acnes; [41],2 µg/mL
same,MIC,P. acnes; [41],2 µg/mL
same,MBC,P. acnes; [42],4 µg/mL
same,MIC,P. acnes; [42],2 µg/mL
same,MBC,P. acnes; [43],4 µg/mL
same,MIC,P. acnes; [43],4 µg/mL
same,MBC,P. acnes; [44],2 µg/mL
same,MIC,P. acnes; [44],0.5 µg/mL
same,MBC50,P. acnes; [45],2 µg/mL
same,MBC90,P. acnes; [45],2 µg/mL
